From US9492494B2, “Oral composition” (Kyowa Hakko Bio Co., Ltd., priority 2007, dated 2016)

Test system: soluble collagen and insoluble collagen of abdominal skin
Assay: Oral administration test in rats: L-hydroxyproline in soluble and insoluble collagen of abdominal skin (Experimental Example 2)
Format: in vivo, F344/DuCrlCrlj rats
Settings: oral 10 mL/kg once a day for 12 days, abdominal skin on 13th day, soluble plus insoluble collagen, mean±standard deviation, 4 rats per group
Experimental: To the rats of the administration groups 7-11 were each administered with compositions 7-11 obtained by dissolving collagen peptide and L-hydroxyproline in purified water to the contents shown in Table 3 at 10 mL/kg. The rats of the control administration group 12 were administered with purified water at 10 mL/kg.
On the 13th day from the start of the administration test, the abdomen was shaved under anesthesia by intraperitoneal administration of pentobarbital, and the abdominal skin was collected. […] The values are shown by mean±standard deviation.

Structure (SMILES): O=C(O)[C@@H]1C[C@@H](O)CN1 [composition 11, trans-4-hydroxy-L-proline]
- L-hydroxyproline amount/wet weight of skin: 10.66 ± 1.69 mg/g
